How the values were obtained:
[1] = DRUGMATRIX: Sigma2 radioligand binding (ligand: [3H] Ifenprodil); type: cell membranes, Rattus norvegicus, Wistar, Brain, Membrane; conditions: Not Active = under 50% inhibition at 10 µM
Substance-P receptor = Substance-P receptor (Homo sapiens, UniProt P25103); type: cell membranes, Membrane; conditions: cho; also: in other assays of this panel Not Active means under 50% inhibition at 10 µM
Substance-K receptor = target: T1, Substance-K receptor (Homo sapiens, UniProt P21452); type: cell membranes, CHO, Membrane; conditions: for Ki: read-out: Ki; as to all read-outs here: in other assays of this panel Not Active means under 50% inhibition at 10 µM
T1 sequence (P21452 whole entry): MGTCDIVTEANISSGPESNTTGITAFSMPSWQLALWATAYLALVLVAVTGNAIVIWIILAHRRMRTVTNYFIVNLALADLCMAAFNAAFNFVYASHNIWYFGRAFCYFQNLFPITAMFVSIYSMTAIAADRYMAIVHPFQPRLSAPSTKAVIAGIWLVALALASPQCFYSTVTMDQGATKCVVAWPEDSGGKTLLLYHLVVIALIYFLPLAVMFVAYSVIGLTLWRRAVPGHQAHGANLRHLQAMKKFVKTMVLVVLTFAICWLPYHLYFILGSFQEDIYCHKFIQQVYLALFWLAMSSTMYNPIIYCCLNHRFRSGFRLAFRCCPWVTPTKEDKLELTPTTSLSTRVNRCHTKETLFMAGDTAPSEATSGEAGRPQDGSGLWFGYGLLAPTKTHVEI

[2] = target: C-C chemokine receptor type 2 (Homo sapiens, UniProt P41597); type: cell membranes, CHO-K1, Membrane; conditions: cho-k1; also: in other assays of this panel Not Active means under 50% inhibition at 10 µM
Interstitial collagenase = target: T2, Interstitial collagenase (Homo sapiens, UniProt P03956); assay: biochemical; type: tissue-based, Rheumatoid synovial fibroblasts;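 also: MMP-1 enzyme inhibition assay using a peptide substrate; in other assays of this panel Not Active means under 50% inhibition at 10 µM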
T2 sequence (P03956 whole entry): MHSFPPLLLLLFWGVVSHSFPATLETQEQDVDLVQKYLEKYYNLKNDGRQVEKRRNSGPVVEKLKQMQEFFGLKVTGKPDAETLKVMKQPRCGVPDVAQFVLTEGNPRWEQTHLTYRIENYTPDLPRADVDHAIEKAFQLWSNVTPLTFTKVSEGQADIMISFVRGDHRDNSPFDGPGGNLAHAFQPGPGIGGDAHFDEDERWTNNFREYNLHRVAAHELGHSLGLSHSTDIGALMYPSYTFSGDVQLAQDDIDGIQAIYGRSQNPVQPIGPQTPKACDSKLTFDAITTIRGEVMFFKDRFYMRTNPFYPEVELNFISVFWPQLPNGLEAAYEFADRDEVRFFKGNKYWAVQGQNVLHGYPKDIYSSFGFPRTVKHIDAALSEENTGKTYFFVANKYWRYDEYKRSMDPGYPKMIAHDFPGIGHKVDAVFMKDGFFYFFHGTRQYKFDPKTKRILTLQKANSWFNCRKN

Cytochrome P450 3A4 = Cytochrome P450 3A4 (Homo sapiens, UniProt P08684); conditions: bti-tn-5b1-4; also: in other assays of this panel Not Active means under 50% inhibition at 10 µM
Chain of Cytochrome P450 3A4 (P08684 whole entry): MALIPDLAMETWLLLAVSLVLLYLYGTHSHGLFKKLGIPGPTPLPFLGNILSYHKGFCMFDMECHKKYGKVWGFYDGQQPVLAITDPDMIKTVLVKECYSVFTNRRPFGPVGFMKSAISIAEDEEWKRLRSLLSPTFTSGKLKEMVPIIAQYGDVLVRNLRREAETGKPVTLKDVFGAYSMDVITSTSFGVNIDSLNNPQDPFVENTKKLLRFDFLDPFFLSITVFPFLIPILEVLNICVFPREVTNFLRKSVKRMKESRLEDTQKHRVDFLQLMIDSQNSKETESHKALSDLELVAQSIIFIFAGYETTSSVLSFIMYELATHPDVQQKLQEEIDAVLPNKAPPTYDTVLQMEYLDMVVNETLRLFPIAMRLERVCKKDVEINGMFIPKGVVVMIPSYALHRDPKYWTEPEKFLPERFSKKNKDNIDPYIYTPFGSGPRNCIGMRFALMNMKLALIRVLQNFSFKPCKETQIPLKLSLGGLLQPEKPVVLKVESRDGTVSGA

Chain of Substance-P receptor (P25103 whole entry): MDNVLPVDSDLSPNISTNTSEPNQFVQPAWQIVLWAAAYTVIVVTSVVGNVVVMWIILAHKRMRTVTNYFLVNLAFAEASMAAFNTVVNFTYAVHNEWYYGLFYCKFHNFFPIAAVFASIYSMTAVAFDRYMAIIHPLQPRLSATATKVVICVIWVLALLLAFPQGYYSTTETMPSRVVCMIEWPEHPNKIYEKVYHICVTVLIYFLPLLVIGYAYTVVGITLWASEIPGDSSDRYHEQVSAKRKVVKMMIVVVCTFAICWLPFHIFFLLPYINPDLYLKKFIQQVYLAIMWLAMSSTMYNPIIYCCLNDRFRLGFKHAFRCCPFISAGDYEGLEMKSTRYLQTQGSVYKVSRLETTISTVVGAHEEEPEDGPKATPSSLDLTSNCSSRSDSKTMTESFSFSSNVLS
Chain of C-C chemokine receptor type 2 (P41597 whole entry): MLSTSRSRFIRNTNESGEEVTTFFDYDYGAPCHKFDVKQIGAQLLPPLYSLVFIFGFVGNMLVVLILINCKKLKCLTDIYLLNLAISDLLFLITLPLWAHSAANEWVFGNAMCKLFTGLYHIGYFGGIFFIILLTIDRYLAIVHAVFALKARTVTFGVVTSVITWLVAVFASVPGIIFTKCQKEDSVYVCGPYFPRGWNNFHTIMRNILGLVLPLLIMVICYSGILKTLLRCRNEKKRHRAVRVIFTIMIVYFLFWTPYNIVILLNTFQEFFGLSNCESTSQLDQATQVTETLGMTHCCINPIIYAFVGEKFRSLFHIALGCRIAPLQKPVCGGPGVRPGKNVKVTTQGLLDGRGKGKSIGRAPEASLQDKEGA

SMILES	IC50 [1]	Ki [1]	IC50 (Substance-P receptor)	IC50 (Substance-K receptor; cho)	IC50 [2]	IC50 (Interstitial collagenase)	IC50 (Cytochrome P450 3A4)	Ki (Cytochrome P450 3A4)	IC50 ([1]; read-out: IC50)	Ki ([1]; read-out: Ki)	IC50 (Substance-K receptor; read-out: IC50)	Ki (Substance-K receptor)
Nc1c(CC(=O)O)cccc1C(=O)c1ccc(Br)cc1 [BROMFENAC]	Not Active	Not Active	Not Active	Not Active	Not Active	Not Active	Not Active	Not Active	–	–	–	–
O=C1CC2(CCCC2)CC(=O)N1CCCCN1CCN(c2ncccn2)CC1 [BUSPIRONE]	–	–	Not Active	Not Active	Not Active	Not Active	–	–	3380 nM	2080 nM	–	–
O=NN(CCCl)C(=O)NCCCl [CARMUSTINE]	Not Active	Not Active	Not Active	Not Active	Not Active	Not Active	–	–	–	–	–	–
CC1=C(C(=O)O)N2C(=O)[C@@H](NC(=O)[C@H](N)c3ccccc3)[C@H]2SC1 [CEPHALEXIN ANHYDROUS]	Not Active	Not Active	Not Active	Not Active	Not Active	Not Active	–	–	–	–	–	–
O=C(N[C@H](CO)[C@H](O)c1ccc([N+](=O)[O-])cc1)C(Cl)Cl [CHLORAMPHENICOL]	Not Active	Not Active	Not Active	Not Active	Not Active	Not Active	–	–	–	–	–	–
CCOC(=O)C(C)(C)Oc1ccc(Cl)cc1 [CLOFIBRATE]	Not Active	Not Active	Not Active	Not Active	Not Active	Not Active	–	–	–	–	–	–
C[C@@H]1C[C@@H]([C@H](O)CC2CC(=O)NC(=O)C2)C(=O)[C@@H](C)C1 [CYCLOHEXIMIDE]	Not Active	Not Active	Not Active	Not Active	Not Active	Not Active	–	–	–	–	–	–
C/C=C/C[C@@H](C)[C@@H](O)[C@H]1C(=O)N[C@@H](CC)C(=O)N(C)CC(=O)N(C)[C@@H](CC(C)C)C(=O)N[C@@H](C(C)C)C(=O)N(C)[C@@H](CC(C)C)C(=O)N[C@@H](C)C(=O)N[C@H](C)C(=O)N(C)[C@@H](CC(C)C)C(=O)N(C)[C@@H](CC(C)C)C(=O)N(C)[C@@H](C(C)C)C(=O)N1C [CYCLOSPORINE]	Not Active	Not Active	Not Active	–	Not Active	Not Active	–	–	–	–	–	–
CN(C)c1ccc(C(=C2C=CC(=[N+](C)C)C=C2)c2ccc(N(C)C)cc2)cc1.[Cl-] [GENTIAN VIOLET]	Not Active	Not Active	Not Active	–	Not Active	Not Active	–	–	–	–	1680 nM	560 nM
NC(=O)NO [HYDROXYUREA]	Not Active	Not Active	Not Active	Not Active	Not Active	Not Active	–	–	–	–	–	–
CC(C)(C(=O)c1cccnc1)c1cccnc1 [METYRAPONE]	Not Active	Not Active	Not Active	Not Active	Not Active	Not Active	–	–	–	–	–	–
COc1ccc2cc([C@H](C)C(=O)O)ccc2c1 [NAPROXEN]	Not Active	Not Active	Not Active	Not Active	Not Active	Not Active	–	–	–	–	–	–
COC(=O)C1=C(C)NC(C)=C(C(=O)OCC(C)C)C1c1ccccc1[N+](=O)[O-] (stereo not drawn) [NISOLDIPINE]	Not Active	Not Active	Not Active	Not Active	Not Active	Not Active	–	–	–	–	–	–
CCn1cc(C(=O)O)c(=O)c2cc(F)c(N3CCN(C)CC3)cc21 [PEFLOXACIN]	Not Active	Not Active	Not Active	Not Active	Not Active	Not Active	–	–	–	–	–	–
CCC1=C[C@@H]2CN(C1)Cc1c([nH]c3ccccc13)[C@@](C(=O)OC)(c1cc3c(cc1OC)N(C)[C@H]1[C@@](O)(C(=O)OC)[C@H](OC(C)=O)[C@]4(CC)C=CCN5CC[C@]31[C@@H]54)C2 [VINORELBINE]	Not Active	Not Active	Not Active	–	Not Active	Not Active	–	–	–	–	1610 nM	536 nM

From ChEMBL document CHEMBL1909046, “DrugMatrix in vitro pharmacology data”
